Data on 24 compounds can be found in patent publication US10988485B2 (Amgen Inc., priority 2018, dated 2021).

A word on the IC50: it is the concentration that gives 50% inhibition.

SMILES strings stand for the structures.

The target in the test is GDP-bound KRAS protein (aa 1-169), containing both G12C and C118A amino acid substitutions (Homo sapiens, UniProt P01116, C118A/G12C). In words: Coupled Nucleotide Exchange Assay (SOS-mediated nucleotide exchange, AlphaScreen). The following applies: compound pre-incubation either 5 min or 2 hours (not stated per compound); SOS and GTP added, cRAF AlphaScreen read-out. Format: biochemical. How it is done:
For compounds in Table 6, the following assay conditions were employed:
Coupled Nucleotide Exchange Assay: Purified GDP-bound KRAS protein (aa 1-169), containing both G12C and C118A amino acid substitutions and an N-terminal His-tag, was pre-incubated in assay buffer (25 mM HEPES pH 7.4, 10 mM MgCl2, and 0.01% Triton X-100) with a compound dose-response titration for either 5 min or 2 hours (see Table 15). Following compound pre-incubation, purified SOS protein (aa 564-1049) and GTP (Roche 10106399001) were added to the assay wells and incubated for an additional 30 min (for 5 min compound pre-incubation) or 1 hour (for 2 hour compound pre-incubation). To determine the extent of inhibition of SOS-mediated nucleotide exchange, purified GST-tagged cRAF (aa 1-149), nickel chelate AlphaLISA acceptor beads (PerkinElmer AL108R), and AlphaScreen glutathione donor beads (PerkinElmer 6765302) were added to the assay wells and incubated for 10 minutes. The assay plates were then read on a PerkinElmer EnVision Multilabel Reader, using AlphaScreen® technology, and data were analyzed using a 4-parameter logistic model to calculate IC50 values.
(In general: Alpha assays give light when donor and acceptor beads are brought close together.)

GDP-bound KRAS protein (aa 1-169), containing both G12C and C118A amino acid substitutions, sequence (P01116 1-169 isoform P01116-2 G12C/C118A): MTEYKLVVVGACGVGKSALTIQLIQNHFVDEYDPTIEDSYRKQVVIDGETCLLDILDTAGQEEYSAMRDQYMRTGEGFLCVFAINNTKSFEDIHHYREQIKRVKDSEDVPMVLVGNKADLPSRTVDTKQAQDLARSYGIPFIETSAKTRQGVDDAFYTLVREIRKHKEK

Take `C=CC(=O)N1C[C@H](C)N(C2=NS(=O)(=O)N(c3ccccc3C(C)(C)C)c3nc(-c4ccccc4S(C)(=O)=O)c(Cl)cc32)C[C@H]1C` (atropisomer, axis not shown) [Example 1-10-1]: the IC50 stood at 80 nM.
The result for `C=CC(=O)N1C[C@H](C)N(C2=NS(=O)(=O)N(c3ccccc3C(C)(C)C)c3nc(-c4ccccc4S(C)(=O)=O)c(Cl)cc32)C[C@H]1C` (atropisomer, axis not shown) [Example 1-10-2] reads 5950 nM.
As for `C=CC(=O)N1C[C@H](C)N(C2=NS(=O)(=O)N(c3c(C)cc(N)nc3C(C)C)c3nc(-c4ccccc4F)c(Cl)cc32)C[C@H]1C` (atropisomer, axis not shown) [Example 10, 1-((2R,5S)-4-(1-(6-Amino-4-methyl-2-(2-propanyl)-3-pyridinyl)-6-chloro-7-(2-fluorophenyl)-2,2-dioxido-1H-pyrido[2,3-c][1,2,6]thiadiazin-4-yl)-2,5-dimethyl-1-piperazinyl)-2-propen-1-one], the figure is 1270 nM; as for `C=CC(=O)N1C[C@H](C)N(C2=NS(=O)(=O)N(c3c(C)cc(N)nc3C(C)C)c3nc(-c4ccccc4F)c(Cl)cc32)C[C@H]1C` (atropisomer, axis not shown) [Example 10-1, 1-((2R,5S)-4-(1-(6-amino-4-methyl-2-(2-propanyl)-3-pyridinyl)-6-chloro-7-(2-fluorophenyl)-2,2-dioxido-1H-pyrido[2,3-c][1,2,6]thiadiazin-4-yl)-2,5-dimethyl-1-piperazinyl)-2-propen-1-one], 3500 nM.
For `C=CC(=O)N1C[C@H](C)N(C2=NS(=O)(=O)N(c3c(C)cc(N)nc3C(C)C)c3nc(-c4ccccc4F)c(Cl)cc32)C[C@H]1C` (atropisomer, axis not shown) [Example 10-2, 1-((2R,5S)-4-(1-(6-amino-4-methyl-2-(2-propanyl)-3-pyridinyl)-6-chloro-7-(2-fluorophenyl)-2,2-dioxido-1H-pyrido[2,3-c][1,2,6]thiadiazin-4-yl)-2,5-dimethyl-1-piperazinyl)-2-propen-1-one], the IC50 is 390 nM.
As for `C=CC(=O)N1C[C@H](C)N(C2=NS(=O)(=O)N(c3ccccc3C(C)(C)C)c3nc(-c4c(N)cccc4F)c(Cl)cc32)C[C@H]1C` (single isomer, unassigned) [Example 1-8-1], the IC50 turned out to be 10 nM.
In the case of `C=CC(=O)N1C[C@H](C)N(C2=NS(=O)(=O)N(c3ccccc3C(C)(C)C)c3nc(-c4c(N)cccc4F)c(Cl)cc32)C[C@H]1C` (single isomer, unassigned) [Example 1-8-2], the IC50 was determined as 69300 nM.
Regarding `C=CC(=O)N1C[C@H](C)N(C2=NS(=O)(=O)N(c3c(C)cnn3C(C)C)c3nc(-c4ccccc4F)c(Cl)cc32)C[C@H]1C` (single isomer, unassigned) [Example 1-11-1], the IC50 came out at 540 nM.
The result for `C=CC(=O)N1C[C@H](C)N(C2=NS(=O)(=O)N(c3c(C)ccnc3C(C)C)c3nc(-c4ccccc4C)c(Cl)cc32)C[C@H]1C` (single isomer, unassigned) [Example 1-12-2] reads 3550 nM; that for `C=CC(=O)N1C[C@H](C)N(C2=NS(=O)(=O)N(c3c(N)ncnc3C(C)C)c3nc(-c4ccccc4F)c(Cl)cc32)C[C@H]1C` (single isomer, unassigned) [Example 9-1], 170 nM; that for `C=CC(=O)N1C[C@H](C)N(C2=NS(=O)(=O)N(c3c(N)ncnc3C(C)C)c3nc(-c4ccccc4F)c(Cl)cc32)C[C@H]1C` (single isomer, unassigned) [Example 9-2], 11200 nM.
As to `C=CC(=O)N1C[C@H](C)N(C2=NS(=O)(=O)N(c3ccccc3C(C)(C)C)c3nc(-c4ccccc4F)c(Cl)cc32)C[C@H]1C` [Example 1-1-1, 1-((2R,5S)-4-(6-chloro-7-(2-fluorophenyl)-1-(2-(2-methyl-2-propanyl)phenyl)-2,2-dioxido-1H-pyrido[2,3-c][1,2,6]thiadiazin-4-yl)-2,5-dimethyl-1-piperazinyl)-2-propen-1-one], the IC50 was determined as 150 nM.
As to `C=CC(=O)N1C[C@H](C)N(C2=NS(=O)(=O)N(c3ccccc3C(C)(C)C)c3nc(-c4ccccc4F)c(Cl)cc32)C[C@H]1C` [Example 1-1-2, 1-((2R,5S)-4-(6-chloro-7-(2-fluorophenyl)-1-(2-(2-methyl-2-propanyl)phenyl)-2,2-dioxido-1H-pyrido[2,3-c][1,2,6]thiadiazin-4-yl)-2,5-dimethyl-1-piperazinyl)-2-propen-1-one], the IC50 worked out at 70800 nM.
As for `C=CC(=O)N1C[C@H](C)N(C2=NS(=O)(=O)N(c3c(CC)cccc3CC)c3nc(-c4ccccc4F)c(Cl)cc32)C[C@H]1C` [Example 1-6, 1-((2R,5S)-4-(6-chloro-1-(2,6-diethylphenyl)-7-(2-fluorophenyl)-2,2-dioxido-1H-pyrido[2,3-c][1,2,6]thiadiazin-4-yl)-2,5-dimethyl-1-piperazinyl)-2-propen-1-one], the figure is 2690 nM; as for `C=CC(=O)N1C[C@H](C)N(C2=NS(=O)(=O)N(c3c(CC)cccc3CC)c3nc(-c4c(N)cccc4F)c(Cl)cc32)C[C@H]1C` [Example 1-7, 1-((2R,5S)-4-(7-(2-amino-6-fluorophenyl)-6-chloro-1-(2,6-diethylphenyl)-2,2-dioxido-1H-pyrido[2,3-c][1,2,6]thiadiazin-4-yl)-2,5-dimethyl-1-piperazinyl)-2-propen-1-one], 890 nM.
Take `C=CC(=O)N1C[C@H](C)N(C2=NS(=O)(=O)N(c3ccccc3C(C)(C)C)c3nc(-c4ccccc4S(C)(=O)=O)c(Cl)cc32)C[C@H]1C` [Example 1-10]: the IC50 is 110 nM.
As for `C=CC(=O)N1C[C@H](C)N(C2=NS(=O)(=O)N(c3c(C)ccnc3C(C)C)c3nc(-c4ccccc4C)c(Cl)cc32)C[C@H]1C` [Example 1-12, 1-((2R,5S)-4-(6-chloro-7-(2-methylphenyl)-1-(4-methyl-2-(2-propanyl)-3-pyridinyl)-2,2-dioxido-1H-pyrido[2,3-c][1,2,6]thiadiazin-4-yl)-2,5-dimethyl-1-piperazinyl)-2-propen-1-one], the figure is 600 nM.
As to `C=CC(=O)N1C[C@H](C)N(C2=NS(=O)(=O)N(c3ccc(CN(C)C)cc3C(C)(C)C)c3nc(-c4ccccc4F)c(Cl)cc32)C[C@H]1C` [Example 1-13-1, 1-((2R,5S)-4-(6-chloro-1-(4-((dimethylamino)methyl)-2-(2-methyl-2-propanyl)phenyl)-7-(2-fluorophenyl)-2,2-dioxido-1H-pyrido[2,3-c][1,2,6]thiadiazin-4-yl)-2,5-dimethyl-1-piperazinyl)-2-propen-1-one], the half-maximal inhibitory concentration (IC50) turned out to be 40 nM.
In the case of `C=CC(=O)N1C[C@H](C)N(C2=NS(=O)(=O)N(c3ccc(CN(C)C)cc3C(C)(C)C)c3nc(-c4ccccc4F)c(Cl)cc32)C[C@H]1C` [Example 1-13-2, 1-((2R,5S)-4-(6-chloro-1-(4-((dimethylamino)methyl)-2-(2-methyl-2-propanyl)phenyl)-7-(2-fluorophenyl)-2,2-dioxido-1H-pyrido[2,3-c][1,2,6]thiadiazin-4-yl)-2,5-dimethyl-1-piperazinyl)-2-propen-1-one], the IC50 is 3870 nM.
Consider `C=CC(=O)N1CCN(C2=NS(=O)(=O)N(c3c(C)ccnc3C(C)C)c3nc(-c4ccccc4F)c(Cl)cc32)[C@@H](C)C1` [Example 2-2, (S)-1-(4-(6-chloro-7-(2-fluorophenyl)-1-(2-isopropyl-4-methylpyridin-3-yl)-2,2-dioxido-1H-pyrido[2,3-c][1,2,6]thiadiazin-4-yl)-3-methylpiperazin-1-yl)prop-2-en-1-one], for which the IC50 stood at 530 nM.
`C=CC(=O)N1CCN(C2=NS(=O)(=O)N(c3ccccc3CC(C)C)c3nc(-c4ccccc4F)c(Cl)cc32)[C@@H](C)C1` [Example 3-2, 1-((3S)-4-(6-chloro-7-(2-fluorophenyl)-1-(2-(2-methylpropyl)phenyl)-2,2-dioxido-1H-pyrido[2,3-c][1,2,6]thiadiazin-4-yl)-3-methyl-1-piperazinyl)-2-propen-1-one]: the IC50 stood at 800 nM.
For the compound `C=CC(=O)N1C[C@H](C)N(C2=NS(=O)(=O)N(c3c(C)cc(CN(C)C)nc3C(C)C)c3nc(-c4ccccc4F)c(Cl)cc32)C[C@H]1C` [Example 4, 1-((2R,5S)-4-(6-Chloro-1-(6-((dimethylamino)methyl)-4-methyl-2-(2-propanyl)-3-pyridinyl)-7-(2-fluorophenyl)-2,2-dioxido-1H-pyrido[2,3-c][1,2,6]thiadiazin-4-yl)-2,5-dimethyl-1-piperazinyl)-2-propen-1-one], the IC50 was determined as 5960 nM.
For `C=CC(=O)N1CCN(C2=NS(=O)(=O)N(c3ccccc3C(C)C)c3nc(-c4c(O)cccc4F)c(F)cc32)[C@@H](C)C1` [Example 5, 1-((3S)-4-(6-Fluoro-7-(2-fluoro-6-hydroxyphenyl)-1-(2-isopropylphenyl)-2,2-dioxido-1H-pyrido[2,3-c][1,2,6]thiadiazin-4-yl)-3-methylpiperazin-1-yl)prop-2-en-1-one], the IC50 stood at 1030 nM.
For `C=CC(=O)N1C[C@H](C)N(C2=NS(=O)(=O)Nc3nc(-c4ccccc4F)c(Cl)cc32)C[C@H]1C` [Example 7, 1-((2R,5S)-4-(6-Chloro-7-(2-fluorophenyl)-2,2-dioxido-1H-pyrido[2,3-c][1,2,6]thiadiazin-4-yl)-2,5-dimethyl-1-piperazinyl)-2-propen-1-one], the IC50 stood at 16400 nM.
